# Experimental data: patent US8445539B2, “Alpha-aminoamide derivatives useful in the treatment of psychiatric disorders” (priority 2007, dated 2013)
# Columns and labels:
# marble burying behaviour = assay: Marble Burying test; assay type: in vivo; conditions: 80 mg/kg po; 30 min before test; CD1 mice; FIG. 1
# Source text: The Marble Burying Test is considered an animal model of anxiety/obsessive-compulsive disorder (OCD). Mice which are placed individually in a cage containing a number of glass marbles spontaneously tend to bury the glass marbles present.
# Several compounds which attenuate anxiety, depression, psychosis or obsessive-compulsive disorders affect this behaviour reducing the number of marbles buried. Therefore the test has predictive validity for anti-anxiety and anti-OCD potential compounds.
# CD1 mice were injected with ralfinamide at the doses of 10, 30, 60 and 80 mg/kg, po; fluoxetine (FLX) at 10 mg/kg, sc or saline and returned to their home cage. After 30 min (ralfinamide) or 60 min (fluoxetine), mice were individually placed in a new cage contained 12 evenly spaced glass marbles. After 30 min mice were removed from the cages and the number of glasses buried for at least two-thirds in the sawdust was counted.
# One-way ANOVA followed by Bonferroni's multiple comparison test; n=6-8 mice per group *p<0.05; p***<0.001 versus control group
# [1] = tested on: anxiety-like behaviour in Open Field; assay: Anxiety open field test; assay type: in vivo; conditions: open field test in rats
# Source text: The Open Field test is commonly used to assess locomotor, exploratory and anxiety-like behaviour in rats or mice. This test is particularly useful in evaluating the effects of anxiolytic and anxiogenic drugs, locomotor responses to drug and as well as behavioural responses to novelty.
# The Open Field test task approaches the conflict between the innate fear that rats have of the central area of a novel or brightly lit open field versus their desire to explore new environments. When anxious, the natural tendency of rodents is to prefer staying closed to the walls (thigmotaxis). In this context, anxiety-related behaviour is measured by the degree to which the rat avoids the center of the Open Field test.
# The Open Field arena consists of an empty and bright square arena surrounded by walls to prevent animal from escaping. The arena (90 cm×90 cm×40 cm height) was divided into 6×6 grid of equally-sized squares using black tape. […]
# The rat is placed in the center of the arena and its behaviour recorded on video over a chosen period (from 5 to 15 min) and scored.
# Time spent in each category of square is recorded. In addition, the fifteen minute open-field test is divided into 3 blocks of 5 minutes and total locomotor activity is scored as the number of square entries in each five minute block. […] Finally, the latency to visit the large centre and any one of the four corners is scored manually. […]
# NMDA receptor complex = assay: Inhibition of NMDA receptor complex, whole cell patch clamp in cortical neurons; assay type: cell-based; conditions: primary rat cortical neurons; holding -70 mV; NMDA 100 μM + glycine 10 μM; read-out: IC50 of NMDA-induced currents
# Protocol: Cortical neurons were prepared from embryonic Wistar rats (E17-E19). A female rat at date 17-19 of pregnancy was anesthetized and sacrificed. The foetuses (n=4-5) were dissected and placed in ice-cold Hank's solution (Hank's solution (Life tech. 14170-088)+glucose 30%+Pen-Strep 100× (Life Tech. 15140-122) 100 U-100 μg/mL and Hepes-NaOH 5 mM).
# The brain of the foetuses was cut in two halves, and each cortex was cut in smaller parts with a scissors, the pieces were transferred to a 15 mL centrifuge tube using a 5 mL pipette and washed twice with Hank's solution. […]
# Cells were counted and diluted in Neurobasal medium to a concentration of 400000 cells per poly-D-lysine 5 μg/mL treated Petri dish. […]
# Experiments on cortical neurons were carried out using standard whole cell patch clamp methods (Hamill et al., 1981. Pflügers Archly: European Journal of Physiology 391(2):85-100). Membrane currents were recorded and filtered at 5 kHz with an Axon Axopatch 200B amplifier and data digitized with an Axon Digidata 1322A (Axon Instruments, CA, USA). […]
# Data were analyzed using Clampfit 9 (Axon Instruments, CA) and Origin 7.5 (Microcal Inc., Northampton, Mass., USA) software. Data points and results were expressed as arithmetic mean±S.E. […]
smiles,measurement,setting,value
"C[C@H](NCc1ccc(OCc2ccccc2F)cc1)C(N)=O [Ralfinamide methanesulfonate, (S)-(+)-2-[4-(2-fluorobenzyloxy)benzylamino]propanamide]",Number of buried marbles,marble burying behaviour,significantly reduces
same,Activity in anxiety animal model (Example 6),[1],active
same,IC50,NMDA receptor complex,7.3 µM
